Test results as given in patent US9206423B2, “Methods of modulating compliance of the trabecular meshwork” (The Regents of the University of California, priority 2012, dated 2015).

Assays:
[1] = system: YAP; test: Expression of YAP in HTM cells after 17-allylamino-17-demethoxygelanamycin; assay type: cell-based, human; conditions: 25 nM
[2] = system: HSP90; test: Amount of HSP90 in HTM cells after 17-allylamino-17-demethoxygelanamycin; assay type: cell-based, human; conditions: 25 nM

C=CCNC1=C2C[C@@H](C)C[C@H](OC)[C@H](O)[C@@H](C)/C=C(\C)[C@H](OC(N)=O)[C@@H](OC)/C=C\C=C(/C)C(=O)NC(=CC1=O)C2=O [17-allylamino-17-demethoxygelanamycin]
expression of YAP [1]: increased expression
reduction of the amount of HSP90 [2]: 50%
